Experimental data as given in PMC6321291, “Synthesis, Biological Evaluation and Docking Studies of Benzoxazoles Derived from Thymoquinone” (Molecules, 2018).
In brackets after ≈: the same amount, converted by molar mass. Read-outs that look alike come from different tables or passages of the source.

Tests used:
[1] = tested on: SW620 (colorectal adenocarcinoma, metastatic); experiment: MTT assay, SW620; assay type: cell-based; settings: Homo sapiens, SW-620, 72 h
Method: (§1) The tested compounds were dissolved in DMSO in five, 10-fold dilutions (0.01–100 µM). The cell lines HeLa (cervical carcinoma), SW620 (colorectal adenocarcinoma, metastatic), HepG2 (hepatocellular carcinoma), CFPAC-1 (ductal pancreatic adenocarcinoma), and WI38 (human lung fibroblast cell line), were cultured as monolayers and maintained in Dulbecco’s modified Eagle medium (DMEM) supplemented with 10% fetal bovine serum (FBS), 2 mM L-glutamine, 100 U mL^−1 penicillin and 100 μg mL^−1 streptomycin in a humidified atmosphere with 5% CO2 at 37 °C.
(§2) The MTT assay was used for evaluation of effects of tested compounds on viability of carcinoma and control cell lines. About 5000 cells per well were seeded onto a series of standard 96-well plates on day 0. Test agents were then added and incubated for further 72 h. Working dilutions of tested compounds were freshly prepared in the growth medium, on the day of testing. The solvent (DMSO) was also tested for eventual inhibitory activity by adjusting its concentration to be the same as in the working concentrations (DMSO concentration never exceeded 0.1%). After 72 h of incubation, the cell growth rate was evaluated by performing the MTT assay: experimentally determined absorbance values were transformed into a cell percentage growth (PG) using the formulas proposed by NIH and described previously. This method directly relies on control cells number at the day of assay because it compares the growth of treated cells with the growth of untreated cells in control wells on the same plate, the results are therefore a percentile difference from the calculated expected value.
(§3) If, however, all of the tested concentrations produce PGs exceeding the respective reference level of effect (e.g., PG value of 50) for a given cell line, the highest tested concentration is assigned as the default value (in the screening data report that default value is preceded by a “>” sign). Each test point was performed in quadruplicate in three individual experiments. The results were statistically analyzed (Analysis of variance (ANOVA), Tukey post-hoc test at p < 0.05). Finally, the effects of the tested substances were evaluated by plotting the mean percentage growth for each cell type in comparison to control on dose response graphs.

[2] = tested on: CFPAC-1 (ductal pancreatic adenocarcinoma); experiment: MTT assay, CFPAC-1; assay type: cell-based; settings: Homo sapiens, 72 h
Method: as §1, §2, §3

[3] = tested on: HepG2 (hepatocellular carcinoma); experiment: MTT assay, HepG2; assay type: cell-based; settings: Homo sapiens, 72 h
Method: as §1, §2, §3

[4] = tested on: HeLa (cervical carcinoma); experiment: MTT assay, HeLa; assay type: cell-based; settings: Homo sapiens, 72 h
Method: as §1, §2, §3

[5] = MTT assay, WI38 healthy control; assay type: cell-based; settings: WI38 human lung fibroblast cells, WI38 healthy control human fibroblast cell line
Method: as §1, §2, §3

[6] = tested on: Escherichia coli ATCC 25922; experiment: Micro-dilution MIC assay, E. coli; assay type: cell-based; settings: ATCC25922, 24 h at 37 °C
Method: (§4) Antimicrobial activity of compounds was evaluated in vitro on eight bacterial strains (Escherichia coli ATCC 25922 (ATCC = American Type Culture Collection, Manassas, VA, USA), Pseudomonas aeruginosa ATCC 9027, Proteus hauseri ATCC 13315, Klebsiella pneumoniae ATCC 10031, Staphylococcus aureus ATCC 6538, Bacillus subtilis ATCC 6633, Clostridium sporogenes ATCC 19404 and Micrococcus luteus ATCC 10240) and three fungi (Candida albicans ATCC 10231, Saccharomyces cerevisiae ATCC 9763 and Aspergillus brasiliensis ATCC 16404).
(§5) Micro-dilution assay was used for determination of tested compounds MIC. A serial dilution method in sterile 96-well microtitre plates was performed. Fresh Mueller–Hinton broth (for bacteria) and Sabouraud dextrose broth (for fungi) were used. In sterile physiological solution, suspensions containing 1.5 × 10^8 CFU mL^−1 for bacteria and 1.5 × 10^7 CFU mL^−1 for fungi were made (according to McFarland). One hundred microliters of broth were added to each well of the plate. Stock solutions of tested compounds were made in DMSO at concentration 10 mg mL^−1, and then 100 μL of the compound stock solution was added to each well of the first column. Double dilution was made in whole row for one tested compound, and repeated for all tested compounds in other rows. Amikacin served as positive control for bacteria, while nystatin served as positive control for fungi. The solvent (DMSO) was used as the negative control. Afterwards, each well was inoculated with 10 μL of microorganism suspension. After incubation, 24 h at 37 °C for bacteria and 48 h at 25 °C for fungi, results were read. The lowest concentration where no growth of microorganism was detected represented MIC.

[7] = tested on: Pseudomonas aeruginosa ATCC 9027; experiment: Micro-dilution MIC assay, P. aeruginosa; assay type: cell-based; settings: ATCC9027, 24 h at 37 °C
Method: as §4, §5

[8] = tested on: Proteus hauseri ATCC 13315; experiment: Micro-dilution MIC assay, P. hauseri; assay type: cell-based; settings: ATCC13315, 24 h at 37 °C
Method: as §4, §5

[9] = tested on: Klebsiella pneumoniae ATCC 10031; experiment: Micro-dilution MIC assay, K. pneumoniae; assay type: cell-based; settings: ATCC10031, 24 h at 37 °C
Method: as §4, §5

[10] = tested on: Staphylococcus aureus ATCC 6538; experiment: Micro-dilution MIC assay, S. aureus; assay type: cell-based; settings: ATCC6538, 24 h at 37 °C
Method: as §4, §5

[11] = tested on: Bacillus subtilis ATCC 6633; experiment: Micro-dilution MIC assay, B. subtilis; assay type: cell-based; settings: ATCC6633, 24 h at 37 °C
Method: as §4, §5

[12] = tested on: Clostridium sporogenes ATCC 19404; experiment: Micro-dilution MIC assay, C. sporogenes; assay type: cell-based; settings: ATCC19404, 24 h at 37 °C
Method: as §4, §5

[13] = tested on: Micrococcus luteus ATCC 10240; experiment: Micro-dilution MIC assay, M. luteus; assay type: cell-based; settings: ATCC10240, 24 h at 37 °C
Method: as §4, §5

[14] = tested on: Candida albicans ATCC 10231; experiment: Micro-dilution MIC assay, C. albicans; assay type: cell-based
Method: as §4, §5

[15] = tested on: Saccharomyces cerevisiae ATCC 9763; experiment: Micro-dilution MIC assay, S. cerevisiae; assay type: cell-based
Method: as §4, §5

[16] = tested on: Aspergillus brasiliensis ATCC 16404; experiment: Micro-dilution MIC assay, A. brasiliensis; assay type: cell-based; settings: A. braziliensis, 48 h at 25 °C
Method: as §4, §5

| IC50 [1] | IC50 [2] | IC50 [3] | IC50 [4] | IC50 at 72 h [5] | melting point | SMILES | MIC [6] | MIC [7] | MIC [8] | MIC [9] | MIC [10] | MIC [11] | MIC [12] | MIC [13] | MIC ([14]; Candida albicans, ATCC10231, 48 h at 25 °C, read-out: MIC) | MIC ([15]; Saccharomyces cerevisiae, ATCC9763, 48 h at 25 °C, read-out: MIC) | MIC ([16]; Aspergillus brasiliensis, ATCC16404, read-out: MIC) | MIC ([14]; 48 h at 25 °C) | MIC ([15]; 48 h at 25 °C) | MIC [16] |
| --- | --- | --- | --- | --- | --- | --- | --- | --- | --- | --- | --- | --- | --- | --- | --- | --- | --- | --- | --- | --- |
| 43.7 µM | 31 µM | 32.3 µM | 25 µM | 29.8 µM | 172 °C | Cc1c(O)cc(C(C)C)c2oc(-c3ccccc3O)nc12 [1b, 2-(2-Hydroxyphenyl)-4-methyl-7-isopropyl-1,3-benzoxazole-5-ol] | – | – | – | – | – | – | – | – | – | – | – | – | – | – |
| 51.5 µM | 34.5 µM | 30.5 µM | 30.1 µM | 57.6 µM | 190 °C | Cc1c(O)cc(C(C)C)c2oc(-c3ccc(Br)cc3)nc12 [1d, 2-(4-Bromophenyl)-4-methyl-7-isopropyl-1,3-benzoxazole-5-ol] | – | – | – | – | – | – | – | – | – | – | – | – | – | – |
| – | – | – | – | – | – | NCC[C@H](O)C(=O)N[C@@H]1C[C@H](N)[C@@H](O[C@H]2O[C@H](CN)[C@@H](O)[C@H](O)[C@H]2O)[C@H](O)[C@H]1O[C@H]1O[C@H](CO)[C@@H](O)[C@H](N)[C@H]1O [Amikacin, amikacin] | 8.54 µM (≈ 5 µg/mL) | 85.4 µM (≈ 50 µg/mL) | 11.9 µM (≈ 7 µg/mL) | 13.7 µM (≈ 8.03 µg/mL) | 18.8 µM (≈ 11 µg/mL) | 71.7 µM (≈ 42 µg/mL) | 25.6 µM (≈ 15 µg/mL) | 3.42 µM (≈ 2 µg/mL) | – | – | – | – | – | – |
| – | – | – | – | – | – | C[C@@H]1[C@H](O)[C@@H](C)/C=C/C=C/CC/C=C/C=C/C=C/C=C/C(O[C@H]2O[C@H](C)[C@@H](O)[C@H](N)[C@@H]2O)CC2O[C@](O)(CC(O)C(O)CCC(O)CC(O)CC(O)CC(=O)O[C@H]1C)CC(O)C2C(=O)O (stereo partly drawn) [Nystatin, nystatin] | – | – | – | – | – | – | – | – | – | – | – | 2700 µM (≈ 2500 µg/mL) | 1350 µM (≈ 1250 µg/mL) | 1350 µM (≈ 1250 µg/mL) |
| > 100 µM | 97 µM | > 100 µM | > 100 µM | 75.9 µM | 178 °C | COc1ccc(-c2nc3c(C)c(O)cc(C(C)C)c3o2)cc1 [1h, 2-(4-Methoxyphenyl)-4-methyl-7-isopropyl-1,3-benzoxazole-5-ol] | – | – | – | – | – | – | – | – | – | – | – | – | – | – |

| SMILES | IC50 [1] | IC50 [2] | IC50 [3] | IC50 [4] | IC50 at 72 h [5] | melting point | MIC [6] | MIC [7] | MIC [8] | MIC [9] | MIC [10] | MIC [11] | MIC [12] | MIC [13] | MIC ([14]; Candida albicans, ATCC10231, 48 h at 25 °C, read-out: MIC) | MIC ([15]; Saccharomyces cerevisiae, ATCC9763, 48 h at 25 °C, read-out: MIC) | MIC ([16]; Aspergillus brasiliensis, ATCC16404, read-out: MIC) | MIC ([14]; 48 h at 25 °C) | MIC ([15]; 48 h at 25 °C) | MIC [16] |
| --- | --- | --- | --- | --- | --- | --- | --- | --- | --- | --- | --- | --- | --- | --- | --- | --- | --- | --- | --- | --- |
| CC1=CC(=O)C(C(C)C)=CC1=O [TQ, Thymoquinone] | 40 µM | 48.3 µM | 24 µM | 28.9 µM | 19.8 µM | – | 29.8 µM (≈ 4.9 µg/mL) | 59.7 µM (≈ 9.8 µg/mL) | 29.8 µM (≈ 4.9 µg/mL) | 59.7 µM (≈ 9.8 µg/mL) | 29.8 µM (≈ 4.9 µg/mL) | 59.7 µM (≈ 9.8 µg/mL) | 122 µM (≈ 20 µg/mL) | 59.7 µM (≈ 9.8 µg/mL) | 3810 µM (≈ 626 µg/mL) | 1900 µM (≈ 312 µg/mL) | 3810 µM (≈ 626 µg/mL) | – | – | – |
